{
  "source": "patent US8198020B2",
  "about": "“Compositions and methods for enhancing phagocytosis or phagocyte activity” (Potentia Pharmaceuticals, Inc., priority 2003, dated 2012)",
  "origin": "cited, not measured here",
  "tested_on": "metastatic colorectal cancer",
  "settings": "patients with metastatic colorectal cancer; prolonged from 15.6",
  "data": [
    {"substance": "Avastin: recombinant monoclonal antibody that binds to VEGF", "values": [
      {"measurement": "median survival", "result": 18.3, "unit": "months"}
    ]}
  ]
}
